Test results reported in patent US6426357B1, “Antagonists of follicle stimulating hormone activity” (Affymax, Inc., priority 1999, dated 2002).

melting point: 241 to 243 °C
Compound: NC(=O)CCN1C(=O)[C@@H](CC(=O)NCCc2ccc(Br)cc2)S[C@H]1c1ccc(C#Cc2ccccc2)s1 (relative stereo) [Example 13, 3-[(2S*,5R*)-5-{[2-(4-Bromo-phenyl)-ethylcarbamoyl]-methyl}-4-oxo-2-(5-phenylethynyl-thiophen-2-yl)-thiazolidin-3-yl]-propionamide]
